The values below come from ChEMBL document CHEMBL5653631, “A Potent and Selective ULK1 Inhibitor Suppresses Autophagy and Sensitizes Cancer Cells to Nutrient Stress” (iScience, 2018).

For test [1], the target named is Serine/threonine-protein kinase PLK2 (Homo sapiens) (UniProt Q9NYY3). In words: Inhibition of human recombinant PLK2 at 40 nM related to control ULK1.
For test [2], the target named is T1, Serine/threonine-protein kinase 3 (Homo sapiens) (UniProt Q13188).
T1 sequence (whole entry): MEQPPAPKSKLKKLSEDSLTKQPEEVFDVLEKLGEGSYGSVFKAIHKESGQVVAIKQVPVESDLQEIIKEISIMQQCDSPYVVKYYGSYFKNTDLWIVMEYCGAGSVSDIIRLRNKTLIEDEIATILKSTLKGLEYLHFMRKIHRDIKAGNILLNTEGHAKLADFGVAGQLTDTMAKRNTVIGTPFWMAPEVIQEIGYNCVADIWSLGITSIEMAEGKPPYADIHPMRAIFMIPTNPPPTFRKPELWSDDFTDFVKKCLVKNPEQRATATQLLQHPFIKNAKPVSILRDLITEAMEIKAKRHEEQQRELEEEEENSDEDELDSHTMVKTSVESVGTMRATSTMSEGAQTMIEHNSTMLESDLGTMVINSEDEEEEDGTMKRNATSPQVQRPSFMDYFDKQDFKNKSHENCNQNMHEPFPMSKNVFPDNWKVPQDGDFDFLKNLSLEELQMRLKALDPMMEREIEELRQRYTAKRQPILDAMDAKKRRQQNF
In words: Inhibition of human recombinant MST2 at 40 nM in presence of ATP by radiometric assay relative to control.

Test [3] addresses T2, Serine/threonine-protein kinase D3 (Homo sapiens) (UniProt O94806).
T2 sequence (whole entry): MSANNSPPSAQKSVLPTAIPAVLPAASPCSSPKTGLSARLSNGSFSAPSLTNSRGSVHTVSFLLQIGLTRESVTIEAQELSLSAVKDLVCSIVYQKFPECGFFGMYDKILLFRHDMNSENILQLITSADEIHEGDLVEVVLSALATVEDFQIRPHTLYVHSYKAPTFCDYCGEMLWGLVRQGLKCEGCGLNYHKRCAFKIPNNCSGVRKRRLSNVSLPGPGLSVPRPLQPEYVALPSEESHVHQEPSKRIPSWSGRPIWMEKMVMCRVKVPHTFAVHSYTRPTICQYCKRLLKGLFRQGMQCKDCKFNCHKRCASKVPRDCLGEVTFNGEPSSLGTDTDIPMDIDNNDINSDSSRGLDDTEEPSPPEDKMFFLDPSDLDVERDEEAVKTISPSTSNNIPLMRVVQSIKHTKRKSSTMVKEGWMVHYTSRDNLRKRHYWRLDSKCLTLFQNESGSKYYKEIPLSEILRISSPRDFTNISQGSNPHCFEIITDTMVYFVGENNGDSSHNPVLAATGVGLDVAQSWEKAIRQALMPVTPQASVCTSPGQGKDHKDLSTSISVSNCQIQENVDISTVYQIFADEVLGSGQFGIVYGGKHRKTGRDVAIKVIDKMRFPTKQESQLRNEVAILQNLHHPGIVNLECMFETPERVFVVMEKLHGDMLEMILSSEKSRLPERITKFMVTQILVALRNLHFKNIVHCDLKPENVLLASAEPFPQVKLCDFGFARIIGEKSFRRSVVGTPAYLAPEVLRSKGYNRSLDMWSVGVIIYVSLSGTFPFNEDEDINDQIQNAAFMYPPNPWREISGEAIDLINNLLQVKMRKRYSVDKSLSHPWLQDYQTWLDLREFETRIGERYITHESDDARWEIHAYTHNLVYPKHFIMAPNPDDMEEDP
In words: Inhibition of human recombinant PKD3 at 40 nM related to control ULK1.

Test [4] addresses T3, Mitogen-activated protein kinase kinase kinase 2 (Homo sapiens) (UniProt Q9Y2U5).
T3 sequence (whole entry): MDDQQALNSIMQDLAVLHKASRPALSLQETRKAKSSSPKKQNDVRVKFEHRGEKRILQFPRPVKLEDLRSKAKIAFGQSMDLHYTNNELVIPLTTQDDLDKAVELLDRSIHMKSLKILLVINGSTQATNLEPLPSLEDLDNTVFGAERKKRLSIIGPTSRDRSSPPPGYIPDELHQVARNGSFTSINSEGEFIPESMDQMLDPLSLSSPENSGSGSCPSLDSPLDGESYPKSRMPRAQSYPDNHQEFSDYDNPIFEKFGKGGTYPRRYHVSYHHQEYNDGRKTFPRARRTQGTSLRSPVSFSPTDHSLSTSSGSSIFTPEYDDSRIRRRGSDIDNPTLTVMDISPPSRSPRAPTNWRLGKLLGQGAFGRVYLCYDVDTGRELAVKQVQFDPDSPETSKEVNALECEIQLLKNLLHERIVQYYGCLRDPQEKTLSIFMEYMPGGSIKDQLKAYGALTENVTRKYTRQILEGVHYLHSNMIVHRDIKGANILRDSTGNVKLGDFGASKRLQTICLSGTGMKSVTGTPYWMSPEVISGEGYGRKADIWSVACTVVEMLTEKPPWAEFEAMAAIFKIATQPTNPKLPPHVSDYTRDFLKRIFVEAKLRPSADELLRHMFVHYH
In words: Inhibition of human recombinant MAP3K2 at 500 nM in presence of ATP by radiometric assay relative to control.

Test [5] concerns the target Dual specificity protein kinase CLK4 (Homo sapiens) (UniProt Q9HAZ1). In words: Inhibition of human recombinant CLK4 at 500 nM in presence of ATP by radiometric assay relative to control.
The target of test [6] is T4, Tyrosine-protein kinase ITK/TSK (Homo sapiens) (UniProt Q08881).
T4 sequence (whole entry): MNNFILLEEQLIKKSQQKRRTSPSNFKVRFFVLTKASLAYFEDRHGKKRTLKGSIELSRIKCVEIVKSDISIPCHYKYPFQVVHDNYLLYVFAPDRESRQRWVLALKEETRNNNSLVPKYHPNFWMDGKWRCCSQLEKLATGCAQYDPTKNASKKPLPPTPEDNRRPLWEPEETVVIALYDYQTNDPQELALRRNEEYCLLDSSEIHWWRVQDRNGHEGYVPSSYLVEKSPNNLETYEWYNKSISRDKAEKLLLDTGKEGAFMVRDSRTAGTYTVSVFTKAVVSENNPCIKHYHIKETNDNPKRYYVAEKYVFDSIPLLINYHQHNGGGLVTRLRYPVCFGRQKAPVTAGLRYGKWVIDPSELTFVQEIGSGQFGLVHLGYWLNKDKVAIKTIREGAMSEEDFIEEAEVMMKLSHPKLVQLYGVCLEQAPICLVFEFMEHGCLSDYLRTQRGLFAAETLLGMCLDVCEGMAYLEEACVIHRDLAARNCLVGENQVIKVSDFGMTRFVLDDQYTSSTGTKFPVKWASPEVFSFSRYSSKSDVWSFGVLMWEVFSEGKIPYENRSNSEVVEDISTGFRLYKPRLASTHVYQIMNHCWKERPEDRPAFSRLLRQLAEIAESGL
In words: Inhibition of human recombinant ITK at 500 nM related to control ULK1.

Test [7] has as its target Mitogen-activated protein kinase kinase kinase kinase 1 (Homo sapiens) (UniProt Q92918). In words: Inhibition of human recombinant HPK1 at 15 nM related to control ULK1.

For orientation: inhibition means the change of the read-out against control, counted positive when it falls.

Chain of Serine/threonine-protein kinase PLK2 (Homo sapiens) (Q9NYY3 whole entry, looked up): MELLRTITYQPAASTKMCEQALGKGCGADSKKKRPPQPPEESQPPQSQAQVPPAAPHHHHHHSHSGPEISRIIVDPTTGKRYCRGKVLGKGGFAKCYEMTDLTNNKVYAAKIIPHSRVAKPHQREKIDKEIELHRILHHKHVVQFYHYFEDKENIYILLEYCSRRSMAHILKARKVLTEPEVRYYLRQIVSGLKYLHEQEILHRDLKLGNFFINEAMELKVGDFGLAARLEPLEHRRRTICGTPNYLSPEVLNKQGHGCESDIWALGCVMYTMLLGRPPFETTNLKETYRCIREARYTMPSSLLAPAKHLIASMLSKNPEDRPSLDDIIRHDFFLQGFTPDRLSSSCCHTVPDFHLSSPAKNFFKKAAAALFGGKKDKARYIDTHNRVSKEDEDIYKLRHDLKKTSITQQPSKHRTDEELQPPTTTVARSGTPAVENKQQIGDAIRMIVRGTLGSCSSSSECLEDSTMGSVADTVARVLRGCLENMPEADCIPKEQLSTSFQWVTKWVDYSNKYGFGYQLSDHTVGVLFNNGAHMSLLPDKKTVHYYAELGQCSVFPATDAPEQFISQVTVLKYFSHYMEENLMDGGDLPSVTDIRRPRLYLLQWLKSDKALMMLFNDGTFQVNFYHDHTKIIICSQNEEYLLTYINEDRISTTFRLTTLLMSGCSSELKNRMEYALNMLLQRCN
Chain of Mitogen-activated protein kinase kinase kinase kinase 1 (Homo sapiens) (Q92918 whole entry, looked up): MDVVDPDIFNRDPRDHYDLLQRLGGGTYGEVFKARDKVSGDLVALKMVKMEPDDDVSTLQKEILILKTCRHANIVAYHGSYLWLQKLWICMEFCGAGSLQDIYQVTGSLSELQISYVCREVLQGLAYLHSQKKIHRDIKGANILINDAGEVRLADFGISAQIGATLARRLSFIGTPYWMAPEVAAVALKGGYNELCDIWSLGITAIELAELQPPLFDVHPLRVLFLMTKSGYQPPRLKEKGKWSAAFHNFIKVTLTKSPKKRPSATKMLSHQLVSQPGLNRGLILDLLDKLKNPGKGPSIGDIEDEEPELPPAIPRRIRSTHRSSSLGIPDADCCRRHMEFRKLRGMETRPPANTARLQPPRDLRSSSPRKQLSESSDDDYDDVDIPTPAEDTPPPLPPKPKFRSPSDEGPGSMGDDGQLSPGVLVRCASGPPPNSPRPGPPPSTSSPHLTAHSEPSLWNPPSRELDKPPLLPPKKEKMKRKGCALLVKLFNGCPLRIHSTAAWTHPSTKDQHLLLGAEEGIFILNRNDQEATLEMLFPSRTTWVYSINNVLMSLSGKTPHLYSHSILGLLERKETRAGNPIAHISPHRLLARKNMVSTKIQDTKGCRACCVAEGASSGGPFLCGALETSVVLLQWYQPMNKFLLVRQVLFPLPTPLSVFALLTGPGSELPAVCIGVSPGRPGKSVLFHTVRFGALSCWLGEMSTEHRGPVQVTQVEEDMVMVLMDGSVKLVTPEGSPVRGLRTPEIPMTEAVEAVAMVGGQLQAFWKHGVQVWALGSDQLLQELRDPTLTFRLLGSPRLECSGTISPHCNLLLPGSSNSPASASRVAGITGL
Chain of Dual specificity protein kinase CLK4 (Homo sapiens) (Q9HAZ1 whole entry, looked up): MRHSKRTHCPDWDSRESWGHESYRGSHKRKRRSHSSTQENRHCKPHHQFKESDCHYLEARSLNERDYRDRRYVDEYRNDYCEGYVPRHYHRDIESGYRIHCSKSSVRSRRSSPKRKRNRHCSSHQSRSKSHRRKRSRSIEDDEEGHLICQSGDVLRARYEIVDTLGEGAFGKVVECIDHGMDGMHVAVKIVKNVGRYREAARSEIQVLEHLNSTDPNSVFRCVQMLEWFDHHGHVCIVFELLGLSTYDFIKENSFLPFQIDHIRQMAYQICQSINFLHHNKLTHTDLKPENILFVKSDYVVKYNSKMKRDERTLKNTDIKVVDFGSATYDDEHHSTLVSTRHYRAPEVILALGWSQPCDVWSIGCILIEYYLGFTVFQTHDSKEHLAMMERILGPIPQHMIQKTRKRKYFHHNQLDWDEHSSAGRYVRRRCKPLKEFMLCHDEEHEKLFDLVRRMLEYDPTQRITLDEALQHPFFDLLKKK

Consider `O=C(N[C@@H](C1CC1)C(F)(F)F)c1cc(-c2cnn3cc(-c4ccc(F)cc4)cnc23)cs1`, for which the figures for the fold change (FC) in test [1] and in test [3] were 0.04 and 0.1, respectively. The inhibition in test [2] stood at 0%.
Consider `CNC(=O)c1ccccc1Oc1nc(Nc2cc(OC)c(OC)c(OC)c2)ncc1Br`, for which the values for the inhibition in test [4] and in test [5] were 3% and 8%, respectively. In addition, in test [6], the fold change (FC) is 0.01.
Take `CC(C)[C@H](NC(=O)c1cc(-c2cnn3cc(-c4ccc(OCCN5CCCCC5)cc4)cnc23)cs1)C(F)(F)F`: the fold change (FC) in test [7] came out at 0.
